Data reported in BindingDB's records for doi:10.1016/j.bmcl.2005.07.040 (Universit&#233, 2005).

Target: Sigma non-opioid intracellular receptor 1 (Cavia porcellus)
Test: Inhibitory concentration against opioid receptor sigma 1 of guinea pig cerebral cortex using [3H](+)-pentazocine upon incubation for 150 minutes at 22 degree C

Compound | IC50 [nM]
O=c1n(CCN2CCCCC2)c(O)c2n1Cc1ccccc1C2 | 6.6
c1ccc2c(c1)C[C@H]1CN(CCN3CCCCC3)CN1C2 [(S)-2-(2-Piperidin-1-yl-ethyl)-1,2,3,5,10,10a-hexahydro-imidazo[1,5-b]isoquinoline] | 77
O=c1n(CCN2CCCCC2)c(O)c2n1CCCC2 [(S)-2-(2-Piperidin-1-yl-ethyl)-tetrahydro-imidazo[1,5-a]pyridine-1,3-dione] | > 1000
Oc1c2n(c(=S)n1CCN1CCCCC1)Cc1ccccc1C2 [(S)-2-(2-Piperidin-1-yl-ethyl)-3-thioxo-2,3,10,10a-tetrahydro-5H-imidazo[1,5-b]isoquinolin-1-one] | 0.9
O=C1N(CCN2CCCCC2)C[C@@H]2Cc3ccccc3CN12 [(S)-2-(2-Piperidin-1-yl-ethyl)-1,5,10,10a-tetrahydro-2H-imidazo[1,5-b]isoquinolin-3-one] | 54
